Laboratory results as given in patent US20230302073A1, “BOTANICAL EXTRACTION” (Performance Labs Pte. Ltd., priority 2022, published 2023).
Converted amounts (≈) assume the structure as drawn.

Legend:
[1] = DPPH radical scavenging (antioxidant) assay; assay type: biochemical; conditions: for IC50: DPPH, reference standards and yerba mate extracts by solvent (Table 10)
Procedure: The free radical scavenging activity of all the extracts was evaluated by 1,1-diphenyl-2-picryl-hydrazyl (DPPH) according to a previously reported method (Shen et al., 2010).
Thirty mg of dried extract of each sample was diluted in 10 ml of methanol, obtaining a concentration of 3 mg/mL as stock solution. From this stock solution were obtained the concentrations of 1.5, 0.75; 0.375; 0.1875; 0.09375; 0.046875; 0.0234275; and 0.01171825 mg/mL. Ascorbic acid, rutin, chlorogenic acid as pure reference standards were used as a positive control and dissolved in methanol to make the stock solution with the same concentration of extract solution.
DPPH (7.89 mg) was weighed on a chemical balance with a minimum weighing limit of 10 μg or smaller. Thereafter, it was dissolved in HPLC grade methanol to obtain a constant volume by filling 100 ml of a measuring flask (0.2 mM DPPH). Then further dilute this solution to 0.1 mM. The absorbance of a DPPH solution is empirically known to decrease with time until approximately 1 hr after preparation. Therefore, it was kept in dark for 2 hr until the absorbance stabilized.
The DPPH solution was stored in the dark at room temperature during the assay, and used up on the day of the preparation. 0.3 mL of each sample concentration and positive control was added to 2.7 mL of 0.1 mM DPPH solution. Reaction occurred inside tubes covered with aluminum paper, in a dark environment at 25° C. The mixtures were shaken vigorously and allowed to stand at room temperature for 30 minutes. Then the absorbance was measured at 517 nm using a microplate reader (Varioskan LUX, ThermoFisher). Control sample was prepared containing the same volume without any extract and reference ascorbic acid; methanol was used as blank and % scavenging of the DPPH free radical was measured using the following equation:
DPPH scavenging effect (% inhibition)={(Ac−As)/Ac)*100}
Where, Ac=absorbance of DPPH alone, As=absorbance of DPPH along with different concentrations of extracts.
The measurements were done at eight points of concentration. The measurement for and analytical sample solution at each concentration was repeated three times.
The IC50 of each analytical sample was calculated according to the following procedure: Inhibition ratio were plotted against the sample concentrations at all six points and the respective regression line (y=ax+b) was drawn. The regression line was not required to pass through the origin. In this step, we verified that all of the measurement points were on the regression line. […] When Y in the regression equation was substituted with 50, X (sample concentration) was calculated.
This value was obtained from the results of calculations using linear regression analysis. […]

[2] = adults; cited from earlier work
[3] = in choline chloride and glycerol; cited from earlier work

O=C(/C=C/c1ccc(O)c(O)c1)O[C@@H]1CC(O)(C(=O)O)C[C@@H](OC(=O)/C=C/c2ccc(O)c(O)c2)C1O (stereo partly drawn) [3,5-diCQA, 3,5-dicaffeoylquinic acid]
IC50 [1]: 185.68 µg/mL (≈ 360 µM)

O=C(/C=C/c1ccc(O)c(O)c1)O[C@H]1[C@H](O)C[C@](O)(C(=O)O)C[C@H]1OC(=O)/C=C/c1ccc(O)c(O)c1 [4,5-diCQA, 4,5-dicaffeoylquinic acid]
IC50 [1]: 199.68 µg/mL (≈ 387 µM)

O=C1O[C@H]([C@@H](O)CO)C(O)=C1O [ascorbic acid]
IC50 [1]: 446.70 µg/mL (≈ 2540 µM)

Cn1c(=O)c2c(ncn2C)n(C)c1=O [caffeine, 1,3,7-trimethylxanthine]
contribution to the extract's antioxidant property ([1]; correlation of DPPH IC50 with total CQAs, with or without caffeine): no contribution

C[N+](C)(C)CCO [choline]
daily upper limit, highest level of intake unlikely to cause harm [2]: 3,500 mg/day

Cn1cnc2c1c(=O)[nH]c(=O)n2C [theobromine, 3,7-dimethylxanthine]
solubility relative to water [3]: ~32 times
